Data as given in patent US7297551B2, “Recombinant proteins and peptides for endotoxin biosensors, endotoxin removal, and anti-microbial and anti-endotoxin therapeutics” (priority 1998, dated 2007).

Key:
[1] = target: T1, rFC (full-length recombinant C. rotundicauda Factor C, CrFC21, from P. pastoris) (Carcinoscorpius rotundicauda, UniProt Q26422); test: BIACORE X binding to immobilized lipid A; conditions: partially-pure rFC to lipid A 10:1 on a mass basis
T1 sequence (Q26422 1-1019): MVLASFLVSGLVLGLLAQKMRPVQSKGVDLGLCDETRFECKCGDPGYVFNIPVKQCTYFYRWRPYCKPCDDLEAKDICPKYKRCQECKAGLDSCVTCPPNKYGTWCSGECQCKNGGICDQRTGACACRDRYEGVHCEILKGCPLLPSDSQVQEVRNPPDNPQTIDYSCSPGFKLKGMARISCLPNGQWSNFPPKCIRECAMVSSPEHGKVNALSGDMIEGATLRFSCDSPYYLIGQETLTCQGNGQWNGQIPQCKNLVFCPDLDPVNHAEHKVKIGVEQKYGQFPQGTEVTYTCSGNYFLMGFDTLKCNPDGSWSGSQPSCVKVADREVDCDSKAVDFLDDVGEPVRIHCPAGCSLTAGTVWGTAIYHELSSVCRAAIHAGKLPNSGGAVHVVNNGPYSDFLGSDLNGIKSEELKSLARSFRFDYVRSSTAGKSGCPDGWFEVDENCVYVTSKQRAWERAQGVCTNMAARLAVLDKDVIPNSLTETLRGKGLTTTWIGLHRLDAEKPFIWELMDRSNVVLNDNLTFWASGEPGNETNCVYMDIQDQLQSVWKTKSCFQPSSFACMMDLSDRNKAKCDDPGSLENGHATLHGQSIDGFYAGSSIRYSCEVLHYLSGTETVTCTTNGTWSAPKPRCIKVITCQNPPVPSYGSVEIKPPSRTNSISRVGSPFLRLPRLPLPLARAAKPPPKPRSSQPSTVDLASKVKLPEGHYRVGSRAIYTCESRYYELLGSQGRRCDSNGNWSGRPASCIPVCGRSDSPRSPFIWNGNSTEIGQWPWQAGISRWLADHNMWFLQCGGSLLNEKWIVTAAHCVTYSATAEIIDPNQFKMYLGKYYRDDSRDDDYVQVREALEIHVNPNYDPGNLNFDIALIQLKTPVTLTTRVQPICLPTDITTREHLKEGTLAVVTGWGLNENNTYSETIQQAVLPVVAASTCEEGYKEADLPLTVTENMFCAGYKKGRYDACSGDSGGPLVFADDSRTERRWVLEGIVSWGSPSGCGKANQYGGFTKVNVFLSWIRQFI
Description: (§1) The binding interactions between rFC and immobilized lipid A were monitored using the BIACORE X™ biosensor (Pharmacia Biotech). The BIACORE X™ sensor chip features a flat hydrophobic surface that allows the immobilization of ligand molecules. Thirty microliters of lipid A at 100 μg/ml were immobilized on each sensor chip to form a ligand surface. Biomax™-50 enriched samples of rFC, rFCEE and rFCSN, each at 1 mg/ml were injected at 10 μl/min for 3 min over the ligand surface. After each injection of the recombinant protein samples, the lipid A ligand surface was regenerated using 0.1 M NaOH. The ligand-binding was measured in relative response units (RU) for each sample, and calculated from the difference in RU at the baseline, viz., before injection of sample, and final experimental reading taken after sample injection and a 2-min wash. The percentage binding was thus determined.

[2] = target: T2, rFCEE (truncated C. rotundicauda Factor C, CrFC21EE, amino acids 1-766, from P. pastoris) (Carcinoscorpius rotundicauda, UniProt Q26422); test: BIACORE X binding to immobilized lipid A; conditions: Biomax-50 enriched, normalized with rFCSN
T2 construct: Pichia pastoris, Biomax-50 enriched
T2 sequence (Q26422 1-766): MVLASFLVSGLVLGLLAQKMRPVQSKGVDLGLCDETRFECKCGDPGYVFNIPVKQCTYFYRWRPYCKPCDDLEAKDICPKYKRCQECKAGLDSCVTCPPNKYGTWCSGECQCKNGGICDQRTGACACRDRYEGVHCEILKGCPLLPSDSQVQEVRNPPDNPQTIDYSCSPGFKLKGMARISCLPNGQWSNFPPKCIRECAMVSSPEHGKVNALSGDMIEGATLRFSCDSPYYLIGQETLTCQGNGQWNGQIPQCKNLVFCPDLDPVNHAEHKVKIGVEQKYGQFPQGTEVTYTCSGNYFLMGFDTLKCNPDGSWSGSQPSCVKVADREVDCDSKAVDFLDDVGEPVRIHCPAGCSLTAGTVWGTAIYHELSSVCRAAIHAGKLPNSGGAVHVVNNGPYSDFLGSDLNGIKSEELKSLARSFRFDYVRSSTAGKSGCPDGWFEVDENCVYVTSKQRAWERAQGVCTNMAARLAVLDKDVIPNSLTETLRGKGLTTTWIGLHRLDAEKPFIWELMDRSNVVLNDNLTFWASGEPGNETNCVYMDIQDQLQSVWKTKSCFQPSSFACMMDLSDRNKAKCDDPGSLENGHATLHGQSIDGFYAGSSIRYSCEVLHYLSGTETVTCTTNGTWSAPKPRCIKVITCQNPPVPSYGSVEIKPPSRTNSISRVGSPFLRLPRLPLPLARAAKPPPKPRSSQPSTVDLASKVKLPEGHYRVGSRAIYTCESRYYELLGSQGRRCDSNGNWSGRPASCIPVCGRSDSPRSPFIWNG
Description: as §1

[3] = target: NH-LBP (aa 1-197); conditions: Han et al., 1994; ligand cell empty; read-out: Equilibrium constant; cited from earlier work
[4] = target: T3, SSCrFCES (LPS-binding domain of C. rotundicauda Factor C, rFCES amino acids 29-330, numbered as in SEQ ID NO: 4) (Carcinoscorpius rotundicauda, UniProt Q26422); conditions: rFCES produced in Drosophila cells, 8 ng/μl; reference 77; cited from earlier work
T3 construct: rFCES (amino acids 29-330); made in house; host or cells: Drosophila S2 cells
T3 sequence (Q26422 29-330): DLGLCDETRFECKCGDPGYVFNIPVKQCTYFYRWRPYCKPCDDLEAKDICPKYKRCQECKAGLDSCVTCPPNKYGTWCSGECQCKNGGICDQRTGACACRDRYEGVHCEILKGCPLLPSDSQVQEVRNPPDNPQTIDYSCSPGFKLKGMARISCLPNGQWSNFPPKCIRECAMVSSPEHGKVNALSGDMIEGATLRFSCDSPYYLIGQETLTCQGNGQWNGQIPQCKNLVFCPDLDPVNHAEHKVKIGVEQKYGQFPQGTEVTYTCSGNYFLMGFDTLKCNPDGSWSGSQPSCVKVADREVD

Question: What does the source list for lipid A?
Answer: net response, lipid A bound [1]: approximately 30%; net response, lipid A bound [2]: 15%; Kd [3]: 51 nM; saturation of immobilized lipid A [4]: 92%
